Measured values from PubChem BioAssay (NCI).
Values joined by “and” are separate entries in the source; they are usually repeats but may differ in a detail not shown here. Equal values may be shown once.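 Five compound concentrations were applied to cells in 96-well plates for 48 hours; endpoints were derived by simple linear interpolation of the resulting dose-response curve. GI50 = concentration required for 50% inhibition of growth. TGI is the concentration that stops growth completely.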

Assays:
Experiment in all cases: NCI-60 cell line screen, 48 h
COLO 205 colon = test system: COLO 205 colon
RXF 393 renal = test system: RXF 393 renal
SK-OV-3 ovarian = test system: SK-OV-3 ovarian
HOP-62 NSCLC = test system: HOP-62 NSCLC
KM12 colon = test system: KM12 colon
786-0 renal = test system: 786-0 renal
CCRF-CEM leukemia = test system: CCRF-CEM leukemia
HL-60(TB) leukemia = test system: HL-60(TB) leukemia
ACHN renal = test system: ACHN renal
IGROV1 ovarian = test system: IGROV1 ovarian

Row | SMILES | GI50 (COLO 205 colon) [µM] | TGI (COLO 205 colon) | GI50 (RXF 393 renal) [µM] | TGI (RXF 393 renal) | GI50 (SK-OV-3 ovarian) [µM] | TGI (SK-OV-3 ovarian) | GI50 (HOP-62 NSCLC) [µM] | TGI (HOP-62 NSCLC) [µM] | GI50 (KM12 colon) [µM] | TGI (KM12 colon) | GI50 (786-0 renal) [µM] | TGI (786-0 renal) [µM] | GI50 (CCRF-CEM leukemia) [µM] | TGI (CCRF-CEM leukemia) [µM] | GI50 (HL-60(TB) leukemia) [µM] | TGI (HL-60(TB) leukemia) | GI50 (ACHN renal) [µM] | TGI (ACHN renal) [µM] | GI50 (IGROV1 ovarian) [µM] | TGI (IGROV1 ovarian) [µM]
1 | C/C(=C/CCC(C)[C@@H]1CC[C@]2(C)C3=C(CC[C@@]12C)[C@@]1(C)CCC(=O)C(C)(C)[C@@H]1CC3)C(=O)O (some centres undefined) | 1.86 | 3.6 µM | 1.51 | 3.08 µM | 1.78 | 3.18 µM | 1.99 | 3.57 | 0.747 | 2.3 µM | 1.18 | 2.57 | 0.708 | 2.5 | 0.855 | 2.32 µM | 1.29 | 2.73 | 1.19 | 2.6
2 | CCCCCCCCCC1CC(=O)OC23CCCC(=O)C12O3 (centres undefined) | – | > 100 µM | – | > 100 µM | – | > 100 µM | – | > 100 | – | > 100 µM | – | > 100 | – | > 100 | – | 69.2 µM | – | > 100 | – | > 100
3 | CCOC1c2nc3ccccc3nc2-c2ccccc2N1C(C)=O (centres undefined) | – | > 100 µM | – | > 100 µM | – | > 100 µM | – | > 100 | – | > 100 µM | – | > 100 | – | > 100 | – | > 100 µM | – | > 100 | – | > 100
4 | OCC1OC(OC2(CO)OC(CO)C(O)C2O)C(O)C(O)C1O (centres undefined) | > 100 | > 100 µM | > 100 | > 100 µM | > 100 | > 100 µM | > 100 | > 100 | > 100 | > 100 µM | > 100 | > 100 | > 100 | > 100 | > 100 | > 100 µM | > 100 | > 100 | > 100 | > 100
5 | CN(C)CCCOc1ccc(NC2=C(Cl)C(=O)C(Nc3ccc(OCCCN(C)C)cc3)=C(Cl)C2=O)cc1 | 0.239 | 0.589 µM | 1.19 | 2.45 µM | 1.82 | 3.34 µM | 1.83 | 3.31 | 0.801 | 2.25 µM | 1.59 | 2.98 | 0.272 | 2.95 | 0.732 | 2.02 µM | 1.66 | 3.02 | 0.544 | 1.11
6 | O=C1C2C(C(=O)N1Cc1ccccc1)N(Cc1ccccc1)C(=O)N2Cc1ccccc1 (centres undefined) | – | > 100 µM | – | > 100 µM | – | > 100 µM | – | > 100 | – | > 100 µM | – | > 100 | – | > 100 | – | > 100 µM | – | > 100 | – | > 100
7 | OCc1ccc(-c2ccc(-c3ccc(CO)o3)o2)o1 | 18.6 | 48.2 µM | 26.5 | > 90 µM | > 83.3 | > 100 µM | 27.1 | > 78 | > 100 | > 100 µM | 35.3 | > 100 | > 100 | > 100 | > 100 | > 100 µM | 35.9 | > 100 | – | > 31.2
8 | CCOC(=O)[C@@H](C)C[C@H](Cc1ccccc1)NC(=O)c1csc([C@@H](C[C@H](C(C)C)N(C)C(=O)CNC(=O)[C@H]2CCCCN2C)OC(C)=O)n1 | 0.483 | 3.64 µM | 0.502 | 4.62 µM | 0.835 | > 14.3 µM | 1.87 | > 14.3 | 0.556 | > 14.3 µM | 1.37 | > 14.3 | 1.08 | > 14.3 | 0.312 | 1.01 µM | 0.837 | > 14.3 | 0.628 | > 14.3
9 | CS(=O)(=O)OCCN1CCN(C(=O)c2ccc(Cl)c3c(Nc4ccc(S(=O)(=O)N=C(N)N)cc4)c4ccccc4nc23)CC1 | – | > 100 µM | – | > 100 µM | – | > 100 µM | – | > 100 | – | > 100 µM | – | > 100 | – | > 100 | – | > 100 µM | – | > 100 | – | > 100
10 | Cc1ccc(-n2c3nc(=O)n(C)c(=O)c-3nc3ccccc32)c(C)c1 | – | 13 µM | – | 34.5 µM | – | 75.8 µM | – | > 100 | – | 26.5 µM | – | 42.1 | – | 41.6 | – | 29.2 µM | – | 15.8 | – | 36.4
11 | O=[N+]([O-])/C=C/c1ccc2ccccc2c1 | – | 5.97 µM | – | 5.72 µM | – | 9.22 µM | – | > 51.5 | – | 3.09 µM | – | > 20.4 | – | > 100 | – | 7.8 µM | – | 4.17 | – | > 21.8
12 | CCC(Oc1ccc(OC)c2c1C(=O)CCC2)C(=O)O (centres undefined) | – | > 100 µM | – | > 100 µM | – | > 100 µM | – | > 100 | – | > 100 µM | – | > 100 | – | > 100 | – | > 100 µM | – | > 100 | – | > 100
13 | COc1cccc(-c2cc(=O)c3cc(N4CCN(C)CC4)ccc3[nH]2)c1 | 2.02 | 3.55 µM and 10.7 µM | 0.238 | 5.77 µM and 0.976 µM | 3.84 | 9.29 µM and 87.2 µM | 10.7 | > 100 | 1.35 | 4.81 µM and 45.4 µM | 5.28 | > 100 | 0.598 | 5.89 | 0.41 | 3.04 µM and 1.23 µM | 3.74 | > 100 | 2.86 | > 100
